According to US8952034B2, “Fused heterocyclic compounds as ion channel modulators” (Gilead Sciences, Inc., priority 2009, dated 2015):

target: wild-type human cardiac sodium channel, hNav1.5 (Homo sapiens, UniProt Q14524); test: Late INa screening assay (automated whole cell patch clamp, PatchXpress); assay type: cell-based; details: compound at 1 μM; HEK293 cells expressing hNav1.5; late INa generated with 10 μM Tefluthrin (or 50 nM ATX II); read-out: LateINa_1 uM (percent block of late INa)
Procedure, shortened: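 Late sodium current through wild-type human hNav1.5 stably expressed in HEK293 cells (no beta subunits) was recorded by automated whole-cell patch clamp on a PatchXpress 7000A at 24-27° C. Late INa was induced with 10 μM Tefluthrin or 50 nM ATX II. Cells were stepped from −120 mV to −20 mV for 250 ms at 0.1 Hz, and percent block was normalized to current in Na-free extracellular solution.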

wild-type human cardiac sodium channel, hNav1.5, sequence (Q14524 whole entry): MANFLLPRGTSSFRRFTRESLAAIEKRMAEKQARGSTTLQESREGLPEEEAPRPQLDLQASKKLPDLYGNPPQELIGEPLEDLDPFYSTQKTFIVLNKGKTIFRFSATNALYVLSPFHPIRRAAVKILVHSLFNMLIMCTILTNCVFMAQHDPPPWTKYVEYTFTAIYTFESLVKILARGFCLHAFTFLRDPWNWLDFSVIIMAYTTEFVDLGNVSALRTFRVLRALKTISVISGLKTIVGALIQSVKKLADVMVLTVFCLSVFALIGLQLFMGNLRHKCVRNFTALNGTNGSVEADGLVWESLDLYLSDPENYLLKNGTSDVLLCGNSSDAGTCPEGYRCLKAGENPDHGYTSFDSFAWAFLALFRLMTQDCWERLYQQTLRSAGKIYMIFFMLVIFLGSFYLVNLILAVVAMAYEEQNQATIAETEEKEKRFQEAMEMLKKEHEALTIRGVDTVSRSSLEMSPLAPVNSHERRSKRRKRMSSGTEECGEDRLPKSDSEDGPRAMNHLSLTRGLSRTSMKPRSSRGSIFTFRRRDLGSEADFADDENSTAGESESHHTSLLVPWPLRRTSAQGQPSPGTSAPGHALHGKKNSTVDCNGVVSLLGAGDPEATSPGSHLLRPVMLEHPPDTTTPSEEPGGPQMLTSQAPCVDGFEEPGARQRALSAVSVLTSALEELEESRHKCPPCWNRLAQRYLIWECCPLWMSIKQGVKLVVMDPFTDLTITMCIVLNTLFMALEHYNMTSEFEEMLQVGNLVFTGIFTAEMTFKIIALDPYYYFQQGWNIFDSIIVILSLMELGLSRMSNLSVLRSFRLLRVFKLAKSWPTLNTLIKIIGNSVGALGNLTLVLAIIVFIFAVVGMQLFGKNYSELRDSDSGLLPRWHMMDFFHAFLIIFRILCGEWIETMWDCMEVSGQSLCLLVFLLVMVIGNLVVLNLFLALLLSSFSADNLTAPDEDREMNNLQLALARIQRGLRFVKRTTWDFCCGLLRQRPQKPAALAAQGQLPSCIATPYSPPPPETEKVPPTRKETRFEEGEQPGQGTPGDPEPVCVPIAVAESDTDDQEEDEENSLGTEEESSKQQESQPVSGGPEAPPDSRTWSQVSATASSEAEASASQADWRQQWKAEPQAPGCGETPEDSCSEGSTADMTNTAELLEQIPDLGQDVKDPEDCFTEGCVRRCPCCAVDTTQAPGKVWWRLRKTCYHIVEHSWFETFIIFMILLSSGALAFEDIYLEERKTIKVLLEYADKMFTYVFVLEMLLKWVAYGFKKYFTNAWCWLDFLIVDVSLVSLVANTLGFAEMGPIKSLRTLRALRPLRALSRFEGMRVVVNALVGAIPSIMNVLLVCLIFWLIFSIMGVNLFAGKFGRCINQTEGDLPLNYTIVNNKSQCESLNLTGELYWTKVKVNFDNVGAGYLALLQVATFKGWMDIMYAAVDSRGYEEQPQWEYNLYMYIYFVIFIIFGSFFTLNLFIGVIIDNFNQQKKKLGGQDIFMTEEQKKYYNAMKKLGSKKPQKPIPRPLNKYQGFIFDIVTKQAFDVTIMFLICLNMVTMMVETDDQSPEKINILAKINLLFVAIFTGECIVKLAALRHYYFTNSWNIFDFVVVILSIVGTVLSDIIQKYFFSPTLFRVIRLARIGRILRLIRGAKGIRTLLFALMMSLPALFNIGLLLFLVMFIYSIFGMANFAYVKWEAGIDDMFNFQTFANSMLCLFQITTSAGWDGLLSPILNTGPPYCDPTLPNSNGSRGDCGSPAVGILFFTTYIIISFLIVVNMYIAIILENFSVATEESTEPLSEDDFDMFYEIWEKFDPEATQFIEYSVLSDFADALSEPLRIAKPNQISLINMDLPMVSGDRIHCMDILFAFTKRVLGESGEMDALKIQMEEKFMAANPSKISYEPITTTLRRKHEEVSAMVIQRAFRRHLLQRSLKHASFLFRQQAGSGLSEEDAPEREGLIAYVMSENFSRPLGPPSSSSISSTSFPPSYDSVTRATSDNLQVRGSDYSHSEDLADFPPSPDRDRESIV

| Compound | inhibition at 1 µM [%] |
| --- | --- |
| Cc1nc(COC(F)(F)c2nnc3ccc(-c4ccc(OC(F)(F)F)cc4)cn23)no1 [BHN-147, 3-{difluoro[(5-methyl-1,2,4-oxadiazol-3-yl)methoxy]methyl}-6-[4-(trifluoromethoxy)phenyl][1,2,4]triazolo[4,3-a]pyridine] | 29.1 |
| FC(F)(F)Oc1ccc(-c2ccc3nnc(C(F)(F)OCc4nc(-c5ccccc5)oc4C(F)(F)F)n3c2)cc1 [BHN-313, 3-(difluoro{[2-phenyl-5-(trifluoromethyl)-1,3-oxazol-4-yl]methoxy}methyl)-6-[4-(trifluoromethoxy)phenyl][1,2,4]triazolo[4,3-a]pyridine] | 50 |
| Fc1ccc(-c2cc(COC(F)(F)c3nnc4ccc(-c5ccc(OC(F)(F)F)cc5)cn34)no2)cc1 [BHN-318, 3-(difluoro{[5-(4-fluorophenyl)-1,2-oxazol-3-yl]methoxy}methyl)-6-[4-(trifluoromethoxy)phenyl][1,2,4]triazolo[4,3-a]pyridine] | 28.9 |
| FC(F)(F)c1nnc2ccc(-c3ccc4ccccc4c3)cn12 [BHN-106, 6-(naphthalen-2-yl)-3-(trifluoromethyl)[1,2,4]triazolo[4,3-a]pyridine] | 38.2 |
| FC(F)(F)Oc1ccc(-c2ccc3nnc(C(F)(F)OCc4cn(Cc5ccccc5)nn4)n3c2)cc1 [BHN-297, 3-{[(1-benzyl-1H-1,2,3-triazol-4-yl)methoxy](difluoro)methyl}-6-[4-(trifluoromethoxy)phenyl][1,2,4]triazolo[4,3-a]pyridine] | 63.4 |
| Cc1cc(OC(F)(F)F)ccc1-c1ccc2nnc(C(F)(F)F)n2n1 [BHN-26, 6-[2-methyl-4-(trifluoromethoxy)phenyl]-3-(trifluoromethyl)[1,2,4]triazolo[4,3-b]pyridazine] | 64.4 |
| Cc1oc(-c2ccccc2)nc1COC(F)(F)c1nnc2ccc(-c3ccc(OC(F)(F)F)cc3)cn12 [BHN-229, 3-{difluoro[(5-methyl-2-phenyl-1,3-oxazol-4-yl)methoxy]methyl}-6-[4-(trifluoromethoxy)phenyl][1,2,4]triazolo[4,3-a]pyridine] | 72.2 |
| FC(F)(F)c1ncc2ccc(-c3nccs3)cn12 [BHN-191, 6-(1,3-thiazol-2-yl)-3-(trifluoromethyl)imidazo[1,5-a]pyridine] | 19.8 |
| CC(OC(F)(F)c1nnc2ccc(-c3ccc(OC(F)(F)F)cc3)cn12)c1ccccn1 (centres unmarked) [BHN-230, 3-{difluoro[1-(pyridin-2-yl)ethoxy]methyl}-6-[4-(trifluoromethoxy)phenyl][1,2,4]triazolo[4,3-a]pyridine] | 42.3 |
| FC(F)(F)Oc1ccc(-c2ccc3nnc(C(F)(F)F)n3c2)cc1-c1nnco1 [BHN-153, 6-[3-(1,3,4-oxadiazol-2-yl)-4-(trifluoromethoxy)phenyl]-3-(trifluoromethyl)[1,2,4]triazolo[4,3-a]pyridine] | 17.2 |
| FC(F)(F)Oc1ccc(-c2ccc3nnc(COCc4ccccn4)n3c2)cc1 [BHN-244, 3-[(pyridin-2-ylmethoxy)methyl]-6-[4-(trifluoromethoxy)phenyl][1,2,4]triazolo[4,3-a]pyridine] | 17.5 |
| FC(F)(F)c1nnc2ccc(-c3ccc(Oc4ccc(Cl)cc4)cc3)nn12 [BHN-236, 6-[4-(4-chlorophenoxy)phenyl]-3-(trifluoromethyl)[1,2,4]triazolo[4,3-b]pyridazine] | 40 |
| Cc1ccc(COCc2nnc3ccc(-c4ccc(OC(F)(F)F)cc4)cn23)nc1 [BHN-252, 3-{[(5-methylpyridin-2-yl)methoxy]methyl}-6-[4-(trifluoromethoxy)phenyl][1,2,4]triazolo[4,3-a]pyridine] | 20.6 |
| COCC(F)(F)c1nnc2ccc(C#Cc3ccc(C(F)(F)F)cc3)cn12 [BHN-234, 3-(1,1-difluoro-2-methoxyethyl)-6-{[4-(trifluoromethyl)phenyl]ethynyl}[1,2,4]triazolo[4,3-a]pyridine] | 57.8 |
| FC(F)(F)c1ccc(-c2ccc3nnc(C(F)(F)OCC4CC4)n3c2)cn1 [BHN-275, 3-[(cyclopropylmethoxy)(difluoro)methyl]-6-[6-(trifluoromethyl)pyridin-3-yl][1,2,4]triazolo[4,3-a]pyridine] | 28.6 |
| FC(F)(F)c1nnc2ccc(-c3ccc(Oc4ccc(Cl)cc4)cc3)cn12 [BHN-65, 6-[4-(4-chlorophenoxy)phenyl]-3-(trifluoromethyl)[1,2,4]triazolo[4,3-a]pyridine] | 55.6 |
| CC(OCc1ccccn1)c1nnc2ccc(-c3ccc(OC(F)(F)F)cc3)cn12 (centres unmarked) [BHN-255, 3-[1-(pyridin-2-ylmethoxy)ethyl]-6-[4-(trifluoromethoxy)phenyl][1,2,4]triazolo[4,3-a]pyridine] | 22.8 |
| COc1ccccc1SCC(C)COC(F)(F)c1nnc2ccc(-c3ccc(OC(F)(F)F)cc3)cn12 (centres unmarked) [BHN-262, 3-(difluoro{3-[(2-methoxyphenyl)sulfanyl]-2-methylpropoxy}methyl)-6-[4-(trifluoromethoxy)phenyl][1,2,4]triazolo[4,3-a]pyridine] | 47.8 |
| FC(F)(F)Oc1ccc(-c2ccc3nnc(C(F)(F)Cl)n3c2)cc1 [BHN-308, 3-[chloro(difluoro)methyl]-6-[4-(trifluoromethoxy)phenyl][1,2,4]triazolo[4,3-a]pyridine] | 71.2 |
| FC(F)(F)Oc1ccc(-c2ccc3nnc(C#CC4CC4)n3c2)cc1 [BHN-171, 3-(cyclopropylethynyl)-6-[4-(trifluoromethoxy)phenyl][1,2,4]triazolo[4,3-a]pyridine] | 49.3 |
| Cc1ccc(C)c(OCC(O)COCC(F)(F)c2nnc3ccc(-c4ccc(OC(F)(F)F)cc4)cn23)c1 (centres unmarked) [BHN-274, 1-(2,2-difluoro-2-{6-[4-(trifluoromethoxy)phenyl][1,2,4]triazolo[4,3-a]pyridin-3-yl}ethoxy)-3-(2,5-dimethylphenoxy)propan-2-ol] | 38.9 |
| Fc1cc(OC(F)(F)F)ccc1-c1ccc2nnc(C(F)(F)F)n2c1 [BHN-145, 6-[2-fluoro-4-(trifluoromethoxy)phenyl]-3-(trifluoromethyl)[1,2,4]triazolo[4,3-a]pyridine] | 55.3 |
| c1ccc(Oc2ccc(-c3ccc4nnc(C5CC5)n4n3)cc2)cc1 [BHN-39, 3-cyclopropyl-6-(4-phenoxyphenyl)[1,2,4]triazolo[4,3-b]pyridazine] | 44.4 |
| FC(F)(F)c1ccc(-c2ccc3nnc(C(F)(F)F)n3c2)c(C(F)(F)F)c1 [BHN-199, 6-[2,4-bis(trifluoromethyl)phenyl]-3-(trifluoromethyl)[1,2,4]triazolo[4,3-a]pyridine] | 20.6 |

same assay, conditions: compound at 10 μM; HEK293 cells expressing hNav1.5; late INa generated with 10 μM Tefluthrin (or 50 nM ATX II); read-out: LateINa_10 uM (percent block of late INa)

| Compound | inhibition at 10 µM [%] |
| --- | --- |
| Cn1cc(-c2nnc3ccc(-c4ccc(OC(F)(F)F)cc4)cn23)cn1 [BHN-82, 3-(1-methyl-1H-pyrazol-4-yl)-6-[4-(trifluoromethoxy)phenyl][1,2,4]triazolo[4,3-a]pyridine] | 38.9 |
| Cc1cc(OC(F)(F)F)ccc1-c1ccc2nnc(C(F)(F)F)n2n1 [BHN-26, 6-[2-methyl-4-(trifluoromethoxy)phenyl]-3-(trifluoromethyl)[1,2,4]triazolo[4,3-b]pyridazine] | 75.3 |
| FC(F)(F)c1nnc2ccc(-c3ccc(Oc4ccc(Cl)cc4)cc3)cn12 [BHN-65, 6-[4-(4-chlorophenoxy)phenyl]-3-(trifluoromethyl)[1,2,4]triazolo[4,3-a]pyridine] | 85.7 |
| NC(=O)c1ccc(-c2nnc3ccc(-c4ccc(OC(F)(F)F)cc4)cn23)cc1 [BHN-79, 4-{6-[4-(trifluoromethoxy)phenyl][1,2,4]triazolo[4,3-a]pyridin-3-yl}benzamide] | 19.3 |
| c1ccc(Oc2ccc(-c3ccc4nnc(C5CC5)n4n3)cc2)cc1 [BHN-39, 3-cyclopropyl-6-(4-phenoxyphenyl)[1,2,4]triazolo[4,3-b]pyridazine] | 74.3 |
